The values that follow come from patent US9169254B2, “Spiroimidazolone derivative” (Chugai Seiyaku Kabushiki Kaisha, priority 2009, dated 2015).

This assay concerns the target T1, human PTH1 receptor (Homo sapiens, UniProt Q03431).
T1 sequence (Q03431 27-593): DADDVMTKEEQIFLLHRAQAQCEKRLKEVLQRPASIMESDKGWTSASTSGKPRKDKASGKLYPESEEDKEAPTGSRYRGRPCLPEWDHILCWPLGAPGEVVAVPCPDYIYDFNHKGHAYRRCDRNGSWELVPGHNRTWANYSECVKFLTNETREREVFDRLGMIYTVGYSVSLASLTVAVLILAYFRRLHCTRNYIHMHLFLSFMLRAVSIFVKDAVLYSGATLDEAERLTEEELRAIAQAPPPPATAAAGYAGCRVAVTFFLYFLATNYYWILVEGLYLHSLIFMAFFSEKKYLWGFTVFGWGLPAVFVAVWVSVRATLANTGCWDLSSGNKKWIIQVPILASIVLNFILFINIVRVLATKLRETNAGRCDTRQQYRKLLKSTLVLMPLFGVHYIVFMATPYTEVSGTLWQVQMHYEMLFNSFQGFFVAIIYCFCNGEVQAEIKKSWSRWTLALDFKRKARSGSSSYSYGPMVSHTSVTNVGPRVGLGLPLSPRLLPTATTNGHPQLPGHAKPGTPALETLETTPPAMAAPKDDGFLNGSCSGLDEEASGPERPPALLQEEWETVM
The experiment in a line: In vitro cAMP signal activity in HKRK-B7 cells (LLC-PK1 cells overexpressing the human PTH1 receptor). The class given is cell-based. The conditions noted are these: HKRK-B7 cells, compound at 1×10^−3 M.

The mark [1] stands for this setting: cAMP produced as percentage of that produced by hPTH(1-34) at 100 nM.

In the case of `Cc1cc(C(=O)N2CCC(CO)CC2)cc(C)c1/C=C/[S@TB4](=O)(=O)N1CCC2(CC1)N=C(c1ccc(F)c(C(F)(F)F)c1)NC2=O` [Compound 1162, 2-(4-fluoro-3-trifluoromethyl-phenyl)-8-{(E)-2-[4-(4-hydroxymethyl-piperidine-1-carbonyl)-2,6-dimethyl-phenyl]-ethenesulfonyl}-1,3,8-triaza-spiro[4.5]dec-1-en-4-one], under setting [1], the “cAMP production activity (%)” value is on record as 112%.

On to `CC(=O)N(CCO)c1ccc(CCS(=O)(=O)N2CCC3(CC2)N=C(c2ccc(F)c(C(F)(F)F)c2)NC3=O)c(C)c1` [Compound 721, N-(4-{2-[2-(4-Fluoro-3-trifluoromethyl-phenyl)-4-oxo-1,3,8-triaza-spiro[4.5]dec-1-ene-8-sulfonyl]-ethyl}-3-methyl-phenyl)-N-(2-hydroxy-ethyl)-acetamide], for which the “cAMP production activity (%)” value under setting [1] is given as 92%.

As to `Cc1cc(CN(C)C(=O)OC(C)(C)C)ccc1CCS(=O)(=O)N1CCC2(CC1)N=C(C1CCCCC1)NC2=O` [Compound 673, {4-[2-(2-cyclohexyl-4-oxo-1,3,8-triaza-spiro[4.5]dec-1-ene-8-sulfonyl)-ethyl]-3-methyl-benzyl}-methyl-carbamic acid tert-butyl ester], the “cAMP production activity (%)” value under setting [1] is recorded as 27%.

For `Cc1cc(N2CCC(=O)NC2=O)cc(C)c1CCS(=O)(=O)N1CCC2(CC1)N=C(C1CCC(C)CC1)NC2=O` (centres unmarked) [Compound 786, 1-(3,5-dimethyl-4-{2-[2-(4-methyl-cyclohexyl)-4-oxo-1,3,8-triaza-spiro[4.5]dec-1-ene-8-sulfonyl]-ethyl}-phenyl)-dihydro-pyrimidine-2,4-dione], the “cAMP production activity (%)” value under setting [1] was found to be 57%.

Regarding `Cc1cc(C(=O)N(C)C)ccc1CCS(=O)(=O)N1CCC2(CC1)N=C(Cc1ccc(Cl)cc1Cl)NC2=O` [Compound 134, 4-{2-[2-(2,4-dichloro-benzyl)-4-oxo-1,3,8-triaza-spiro[4.5]dec-1-ene-8-sulfonyl]-ethyl}-3,N,N-trimethyl-benzamide], the “cAMP production activity (%)” value under setting [1] stood at 77%.

As for `Cc1cc(N(C)C(=O)CN)cc(C)c1/C=C/S(=O)(=O)N1CCC2(CC1)N=C(c1cccc(OC(F)(F)F)c1)NC2=O` [Compound 1011, 2-Amino-N-(3,5-dimethyl-4-{(E)-2-[4-oxo-2-(3-trifluoromethoxy-phenyl)-1,3,8-triaza-spiro[4.5]dec-1-ene-8-sulfonyl]-vinyl}-phenyl)-N-methyl-acetamide], the “cAMP production activity (%)” value under setting [1] came to 17%.

As to `Cc1cc(C(=O)N2CCC(O)(CF)CC2)cc(C)c1/C=C/S(=O)(=O)N1CCC2(CC1)N=C(c1ccc(C(F)(F)C(F)(F)F)cc1)NC2=O` [Compound 1244, 8-{(E)-2-[4-(4-fluoromethyl-4-hydroxy-piperidine-1-carbonyl)-2,6-dimethyl-phenyl]-ethenesulfonyl}-2-(4-pentafluoroethyl-phenyl)-1,3,8-triaza-spiro[4.5]dec-1-en-4-one], under setting [1], the “cAMP production activity (%)” value came out at 96%.

For `CCCCCCCCCC1=NC2(CCN(S(=O)(=O)/C=C/c3ccc(N4C(=O)CNC4=O)cc3C(F)(F)F)CC2)C(=O)N1` [Compound 537, 3-{4-[(E)-2-(2-nonyl-4-oxo-1,3,8-triaza-spiro[4.5]dec-1-ene-8-sulfonyl)-vinyl]-3-trifluoromethyl-phenyl}-imidazolidine-2,4-dione], the “cAMP production activity (%)” value under setting [1] is given as 3.9%.

For `O=C(Nc1ccccc1)c1ccccc1S(=O)(=O)N1CCC2(CC1)N=C(C1CCCCC1)NC2=O` [Compound 957, 2-(2-Cyclohexyl-4-oxo-1,3,8-triaza-spiro[4.5]dec-1-ene-8-sulfonyl)-N-phenyl-benzamide], where the note is “[…], 0.1 µM”, the “cAMP production activity (%)” value is listed as 17%.

Turning to `Cc1cc(N(C)C(N)=O)cc(C)c1CCS(=O)(=O)N1CCC2(CC1)N=C(C1CCC(=C(F)F)CC1)NC2=O` (centres unmarked) [Compound 1059, 1-(4-{2-[2-(4-Difluoromethylene-cyclohexyl)-4-oxo-1,3,8-triaza-spiro[4.5]dec-1-ene-8-sulfonyl]-ethyl}-3,5-dimethyl-phenyl)-1-methyl-urea], under setting [1], the “cAMP production activity (%)” value was determined as 116%.

Consider `Cc1cc(C(=O)N2CCC(O)(CF)CC2)cc(C)c1/C=C/S(=O)(=O)N1CCC2(CC1)N=C(c1ccc(C(F)F)c(F)c1)NC2=O` [Compound 1255, 2-(4-difluoromethyl-3-fluoro-phenyl)-8-{(E)-2-[4-(4-fluoromethyl-4-hydroxy-piperidine-1-carbonyl)-2,6-dimethyl-phenyl]-ethenesulfonyl}-1,3,8-triaza-spiro[4.5]dec-1-en-4-one], for which the “cAMP production activity (%)” value under setting [1] is listed as 66%.

As for `Cc1cc(N(C)C(N)=O)cc(C)c1/C=C/[S@TB4](=O)(=O)N1CCC2(CC1)N=C(CCCCCCCCCCC(F)F)NC2=O` [Compound 1125, 1-(4-{(E)-2-[2-(11,11-difluoro-undecyl)-4-oxo-1,3,8-triaza-spiro[4.5]dec-1-ene-8-sulfonyl]-vinyl}-3,5-dimethyl-phenyl)-1-methyl-urea], under setting [1], the “cAMP production activity (%)” value was 93%.

In the case of `O=C1NC(C2CCCCC2)=NC12CCN(S(=O)(=O)/C=C/c1cccc3[nH]c(=O)oc13)CC2` [Compound 188, 2-cyclohexyl-8-[(E)-2-(2-oxo-2,3-dihydro-benzoxazol-7-yl)-ethenesulfonyl]-1,3,8-triaza-spiro[4.5]dec-1-en-4-one], the “cAMP production activity (%)” value under setting [1] was 70%.

On to `Cc1cc(N2C(=O)CNC2=O)ccc1CCS(=O)(=O)N1CCC2(CC1)N=C(C1CCC(CCC(F)(F)F)CC1)NC2=O` (centres unmarked) [Compound 943, 3-[3-Methyl-4-(2-{4-oxo-2-[4-(3,3,3-trifluoro-propyl)-cyclohexyl]-1,3,8-triaza-spiro[4.5]dec-1-ene-8-sulfonyl}-ethyl)-phenyl]-imidazolidine-2,4-dione], for which the “cAMP production activity (%)” value under setting [1] came to 74%.

For the compound `Cc1cc(N(C)C(N)=O)cc(C)c1/C=C/S(=O)(=O)N1CCC2(CC1)N=C(CCCCCCCCCCCCCC(N)=O)NC2=O` [Compound 1175, 14-(8-{(E)-2-[2,6-dimethyl-4-(1-methyl-ureido)-phenyl]-ethenesulfonyl}-4-oxo-1,3,8-triaza-spiro[4.5]dec-1-en-2-yl)-tetradecanoic acid amide], under setting [1], the “cAMP production activity (%)” value amounted to 81%.

`CC(=O)NNC(=O)c1cc(C)c(CCS(=O)(=O)N2CCC3(CC2)N=C(C2CCC(CCC(F)(F)F)CC2)NC3=O)c(C)c1` (centres unmarked) [Compound 769, 3,5-dimethyl-4-(2-{4-oxo-2-[4-(3,3,3-trifluoro-propyl)-cyclohexyl]-1,3,8-triaza-spiro[4.5]dec-1-ene-8-sulfonyl}-ethyl)-benzoic acid N′-acetyl-hydrazide]: under setting [1], the “cAMP production activity (%)” value worked out at 55%.

As to `Cc1cc(N2C(=O)N(C)C(C)(C)C2=O)cc(C)c1CCS(=O)(=O)N1CCC2(CC1)N=C(C1CCC(C)CC1)NC2=O` (centres unmarked) [Compound 885, 3-(3,5-dimethyl-4-{2-[2-(4-methyl-cyclohexyl)-4-oxo-1,3,8-triaza-spiro[4.5]dec-1-ene-8-sulfonyl]-ethyl}-phenyl)-1,5,5-trimethyl-imidazolidine-2,4-dione], the “cAMP production activity (%)” value under setting [1] amounted to 58%.

Turning to `CC(=O)NCc1cc(C)c(/C=C/S(=O)(=O)N2CCC3(CC2)N=C(C2CCC(C)CC2)NC3=O)c(C)c1` (centres unmarked) [Compound 522, N-(3,5-dimethyl-4-{(E)-2-[2-(4-methyl-cyclohexyl)-4-oxo-1,3,8-triaza-spiro[4.5]dec-1-ene-8-sulfonyl]-vinyl}-benzyl)-acetamide], under setting [1], the “cAMP production activity (%)” value was 82%.

In the case of `Cc1cc(C(=O)N(C)C)ccc1CCS(=O)(=O)N1CCC2(CC1)N=C(c1cccc3c1OC(F)(F)O3)NC2=O` [Compound 92, 4-{2-[2-(2,2-difluoro-benzo[1,3]dioxol-4-yl)-4-oxo-1,3,8-triaza-spiro[4.5]dec-1-ene-8-sulfonyl]-ethyl}-3,N,N-trimethyl-benzamide], under setting [1], the “cAMP production activity (%)” value is 97%.

Turning to `Cc1cc(C(=O)N2C[C@@H](O)[C@H](N(C)C)C2)cc(C)c1/C=C/S(=O)(=O)N1CCC2(CC1)N=C(c1cccc(C(F)(F)F)c1)NC2=O` [Compound 387, 8-{(E)-2-[4-((3R,4R)-3-dimethylamino-4-hydroxy-pyrrolidine-1-carbonyl)-2,6-dimethyl-phenyl]-ethenesulfonyl}-2-(3-trifluoromethyl-phenyl)-1,3,8-triaza-spiro[4.5]dec-1-en-4-one], the “cAMP production activity (%)” value under setting [1] is recorded as 97%.

For the compound `Cc1c(CCS(=O)(=O)N2CCC3(CC2)N=C(c2cccc(OC(F)(F)F)c2)NC3=O)cccc1OCCC(O)CO` (centres unmarked) [Compound 266, 8-{2-[3-(3,4-dihydroxy-butoxy)-2-methyl-phenyl]-ethanesulfonyl}-2-(3-trifluoromethoxy-phenyl)-1,3,8-triaza-spiro[4.5]dec-1-en-4-one], under setting [1], the “cAMP production activity (%)” value is recorded as 81%.

With `Cc1cc(N(C)C(N)=O)cc(C)c1/C=C/S(=O)(=O)N1CCC2(CC1)N=C(c1ccc(OCCCC(F)(F)F)cc1)NC2=O` [Compound 1020, 1-[3,5-dimethyl-4-((E)-2-{4-oxo-2-[4-(4,4,4-trifluoro-butoxy)-phenyl]-1,3,8-triaza-spiro[4.5]dec-1-ene-8-sulfonyl}-vinyl)-phenyl]-1-methyl-urea], the “cAMP production activity (%)” value under setting [1] was determined as 81%.

`Cc1cc2ccc1CCS(=O)(=O)N1CCC3(CC1)N=C(NC3=O)c1cc(cc(C(F)(F)F)c1)OCC/C=C/COCCN(C)C2=O` [Compound 1420]: the “cAMP production activity (%)” value under setting [1] is on record as 20%.
